{
  "source": "paper PMC5052702",
  "about": "(Nature Communications, 2016)",
  "key": {"[1]": {"biological_target": "T1, Coxsackie virus 3C protease (Coxsackievirus B3, UniProt P03313)", "T1 construct": "3C protease of Coxsackie virus B3 consisting of 183 amino-acid residues; made in house; host or cells: E. coli BL21(DE3), plasmid pET-23a(+)", "T1 sequence (P03313 1541-1723)": "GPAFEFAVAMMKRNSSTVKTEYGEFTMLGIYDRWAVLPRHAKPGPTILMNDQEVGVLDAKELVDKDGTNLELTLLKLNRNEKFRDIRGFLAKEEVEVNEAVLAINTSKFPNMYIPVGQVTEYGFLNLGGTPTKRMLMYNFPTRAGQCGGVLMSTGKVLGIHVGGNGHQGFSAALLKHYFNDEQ", "assay": "ESI-MS of protease after incubation with inhibitor (covalent modification)", "assay_type": "binding", "settings": "deconvoluted ESI-MS, main peak", "protocol": "This inactivation rate corresponded to an apparent half-maximal inhibitory concentration (IC50) value of >>1 mM after 10 min (Fig. 2b, Table 1). The covalent mode of action was confirmed by electrospray ionization high-resolution ion mobility spectrometry-mass spectrometry (ESI-MS) measurements. Incubation of the protease with warhead 1 shifted the main deconvoluted mass peak of the protein from 21,471.5 to 21,588.5 Da and the observed protein mass difference of 117 Da corresponded well with the molecular weight of bis-electrophile 1 after hydrolysis of the ethyl ester.\nHigh-resolution mass spectra were recorded on a Synapt G2-S HDMS by Waters Co. (Milford, […]) equipped with an Acquity UPLC and a Phenomenex Jupiter C-18 column (3 × 250 mm, 5 μm, 300 Å). The ionization and transfer parameters of the MS system have been optimized for a standard sample (insulin) and were applied without modification. Deconvolution of measurement results was performed by the MaxEnt1 method of the MassLynx software by Waters Co. The most important source parameters are: capillary voltage: 3.3 kV, sampling cone: 40 V, source offset: 60 V, source temperature: 100 °C, desolvation temperature: 250 °C, desolvation gas flow: 600 l h^−1. […]"}, "CVB3 3C protease": {"biological_target": "T2, CVB3 3C protease (Coxsackievirus B3, UniProt P03313)", "T2 construct": "3C protease of Coxsackie virus B3 consisting of 183 amino-acid residues; made in house; host or cells: E. coli BL21(DE3), plasmid pET-23a(+)", "T2 sequence (P03313 1541-1723)": "as above", "assay": "FRET-based enzyme activity assay (warhead activation / inhibitor kinetics)", "assay_type": "biochemical, Coxsackie virus B3", "protocol": "The activity of the protease was measured by hydrolysis of the FRET-substrate N-Dabcyl-KTLEALFQ↓GPPVYE(Edans)-NH2. The peptide was purchased from Biosyntan (Berlin, Germany). Samples were irradiated with light with a wavelength of 355 nm and the emitted light at 538 nm was measured in relative fluorescence units (RFUs). An amount of 100 pmol of cleaved substrate equals 5,000 RFU.\nAssay samples contained 10 μl of a 100 mM HEPES-NaOH buffer solution pH 7.5/1 mM EDTA, 10 μl enzyme solution (2 μM CVB3 3C^Pro), 10 μl of 10 μM substrate solution (both dissolved in the above buffer) and 1 μl Inhibitor and/or fragment dissolved in DMSO. For assay results of a dilution series of a mixture of 1 and 2 and comparison of reaction products in dependence of the assay solvent, see Supplementary Figs 1 and 2.\nThe screening procedure consisted of the following steps: 10 μl 100 mM HEPES-NaOH buffer solution pH 7.5/1 mM EDTA was placed in a cavity of the 384-well plate (polystyrene, Corning 3544). Then 10 μl of enzyme solution (40 μM CVB3 3C protease in 100 mM HEPES-NaOH buffer solution, pH 7.5/1 mM EDTA) was added and the plate was shaken for 2 min at 1,400 r.p.m. Afterwards, 0.5 μl of a DMSO solution of the electrophilic probe and 0.5 μl of a DMSO solution of the nucleophile was added, followed by 10 μl of substrate solution (10 μM in 100 mM HEPES-NaOH buffer solution, pH 7.5/1 mM EDTA). The plate was shaken again for 2 min at 1,400 r.p.m. and the generated fluorescence signal was measured with a Safire II Fluorimeter from Tecan. The electrophilic probe 1 was used at a concentration of 400 μM for the screening, which lowered the protease activity by 10–20%. Eight-hundred fifty primary amines were tested at a concentration of 320 μM and fragment 2 amplified the inhibitory activity of 1 most potently. Positive control samples contained only DMSO instead of the probe or the nucleophile. Negative control samples contained no active enzyme. An interfering fluorescent effect has not been observed.\nWhen determining the inhibitory parameters of an inhibitor, the assay set-up was as mentioned but 1 μl DMSO solution of inhibitor was used instead of probe or nucleophile. Different concentrations of inhibitor were tested at least as duplicates and the pseudo-first-order association kinetics (kobs) were determined using GraphPad Prism. The slope of a plot of the different kobs values against the inhibitor concentration yielded kinact/KI."}},
  "note": "Several values for one entry are separate records, joined by “and”; a condition that tells them apart may be missing. Identical values can stand only once.",
  "data": [
    {"smiles": "CCOC(=O)[C@H]1O[C@@H]1C=O", "note": "[Compound 1, ethyl (2S,3S)-epoxy-4-oxo-butanoate]", "values": [
      {"measurement": "observed protein mass difference after incubation", "setting": "[1]", "value": 117, "unit": "Da"},
      {"measurement": "inhibition of the protease, in words", "setting": "CVB3 3C protease", "value": "virtually inactive"},
      {"measurement": "IC50", "setting": "CVB3 3C protease; after 10 min, read-out: apparent half-maximal inhibitory concentration (IC50)", "value": "> 1000", "unit": "µM"},
      {"measurement": "lowering of protease activity", "setting": "CVB3 3C protease; probe at 400 μM, screening", "value": "10–20%"},
      {"measurement": "kinact/KI", "setting": "CVB3 3C protease; relative inactivation rate, slope of kobs against inhibitor concentration", "value": "2.36 M⁻¹ s⁻¹ and 2.4 ± 0.1 M⁻¹ s⁻¹"}
    ]}
  ]
}
